Experimental data taken from patent US12527774B2, “Estrogen-related receptor alpha modulators” (LEAD PHARMA HOLDING B.V., priority 2019, dated 2026).

How the values were obtained:
B16F10 melanoma = experiment: B16F10 Melanoma Syngeneic Mouse Model; assay type: in vivo; details: 30 mpk p.o., q.d., C57BL/6 mice; for Tumor Growth Inhibition (%): Day 13
Description: B16F10 Melanoma Syngeneic Mouse Model
Examples inhibitors 100, 191, 192, 194 and 196 were tested for their ability to inhibit tumor growth in a B16F10 melanoma syngeneic mouse model.
Cell line and tumor model: B16F10 melanoma cell line derived allograft model in C57BL/6 mice.
Mouse B16F10 melanoma cells were sourced from American Type Culture Collection (ATCC), USA. Cells were grown in DMEM (Invitrogen, Catalogue No. 31600-034) supplemented with 10% FBS (Invitrogen, Catalogue No. 10438-026), and 1% penicillin streptomycin (Thermo Fisher Scientific, Catalogue No. 15140-122). To establish allografts, the cells were harvested by trypsinization when they reach around 70 to 80% confluence and 0.1 million B16F10 cells were suspended in 50 μl of serum free medium and mixed at 1:1 ratio with matrigel before implanting subcutaneously into the dorsal right flank of mice using a 1 mL BD syringe attached to a 24-gauge needle.
B16F10 tumor grafts were measured after 5 days of cell inoculation once they became palpable. When the average tumor volume reached around 58 mm^3, animals were dosed after randomization into different treatment groups keeping tumor volume and number of animals in such a way so that the average tumor volume of each group remained same across the groups. Dosing was performed on a per kilogram weight basis, by mouth (per os, p.o.) once a day (quaque die, q.d).
Tumor dimensions—length (I) and breadth (b)—were measured by caliper on the day of animal randomization based on tumor volume (Day 1) and thrice weekly thereafter until study termination. Tumor volumes were calculated using the formula b^2*I*0.52 where l=length, b=breadth (Dusan Djokovic et al., BMC Cancer, 2010, 10:641). Tumor growth inhibition was calculated after normalizing the tumor volume on a given day to that on Day 1.
Test items administration was started when tumor volume reached an average of 58 mm^3.
Administration of test items was carried out until Day 14 and measurement of tumor volume was carried out until Day 13 for computing percent tumor growth inhibition (TGI).

[1] = target: ERRα ligand binding domain (ERRα-LBD) (Homo sapiens (Human), UniProt P11474); experiment: ERRα AlphaScreen Assay; assay type: biochemical; details: disruption of binding of ERRα-LBD protein to biotin-PGC1α-3 co-activator peptide
Sequence of ERRα ligand binding domain (ERRα-LBD) (P11474 193-421): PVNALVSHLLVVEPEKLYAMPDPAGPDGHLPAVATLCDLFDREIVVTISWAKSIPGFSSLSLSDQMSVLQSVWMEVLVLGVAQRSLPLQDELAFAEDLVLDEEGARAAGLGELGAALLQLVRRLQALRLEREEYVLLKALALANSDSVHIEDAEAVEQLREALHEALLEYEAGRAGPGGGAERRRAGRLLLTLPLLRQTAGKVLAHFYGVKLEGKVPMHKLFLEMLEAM
Outline: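 His-SUMO-tagged ERRα-LBD from E. coli (0.81 nM) preincubated 1 h at room temperature with compound, streptavidin donor and Ni-chelate acceptor beads (10 μg/mL each), then 2 h with 15 nM biotin-PGC1α-3 peptide (aa 202–220). Buffer: 50 mM Tris-HCl pH 7.5, 100 mM NaCl, 5 mM TCEP, 1% DMSO. Four-parameter IC50; mean pIC50 of replicate values.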

full length ERRα = full length ERRα (Homo sapiens (Human), UniProt P11474); experiment: Full Length ERRα Reporter Gene Assay; assay type: cell-based; details: SK-BR-3 cells, ERRα-RE luciferase reporter, overnight incubation; read-out: mean pIC50 (converted)
Sequence of full length ERRα (P11474 whole entry): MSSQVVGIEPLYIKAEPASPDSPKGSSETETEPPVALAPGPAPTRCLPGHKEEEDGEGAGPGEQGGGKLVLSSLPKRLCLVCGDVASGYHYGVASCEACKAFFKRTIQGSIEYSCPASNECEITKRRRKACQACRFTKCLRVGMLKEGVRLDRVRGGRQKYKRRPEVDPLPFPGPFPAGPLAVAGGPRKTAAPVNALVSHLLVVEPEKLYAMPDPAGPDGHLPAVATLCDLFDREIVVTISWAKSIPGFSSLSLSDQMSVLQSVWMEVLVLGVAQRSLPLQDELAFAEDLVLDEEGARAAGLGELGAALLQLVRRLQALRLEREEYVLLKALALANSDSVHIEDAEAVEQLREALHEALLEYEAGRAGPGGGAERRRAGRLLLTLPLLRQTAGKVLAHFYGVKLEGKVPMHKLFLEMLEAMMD
Outline: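 SK-BR-3 cells transiently co-transfected with full-length human ERRα expression construct and ERRα-RE luciferase reporter, plated next day at 25,000 cells/well in phenol-red-free medium with 2% charcoal-stripped FBS. Compound (12-point 4-fold series) incubated overnight; firefly luminescence read, activity as log IC50.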

Row | mean pIC50 [1] | IC50 (full length ERRα) [nM] | Compound | Tumor Volume (mm^3) Day 13 (B16F10 melanoma) [mm^3] | Tumor Growth Inhibition (%) (B16F10 melanoma)
1 | ≥ 8 | ≤ 316 | COc1cc(C2CC(=O)Nc3n[nH]cc32)ccc1COc1ccc(Cl)cc1C(F)(F)F (single isomer, unassigned; (-)) [Example 194, (−)-4-(4-{[4-chloro-2-(trifluoromethyl)phenoxy]methyl}-3-methoxyphenyl)-2H,4H,5H,6H,7H-pyrazolo[3,4-b]pyridin-6-one] | 870 ± 152 | 53
2 |  | ≤ 316 | COc1cc(C2CC(=O)Nc3n[nH]cc32)ccc1COc1ccc(C(F)F)cc1C(F)(F)F (single isomer, unassigned; (-)) [Example 196, (−)-4-(4-{[4-(difluoromethyl)-2-(trifluoromethyl)phenoxy]methyl}-3-methoxyphenyl)-2H,4H,5H,6H,7H-pyrazolo[3,4-b]pyridin-6-one] | 755 ± 135 | 60
3 | ≥ 8 | ≤ 316 | C=CCc1ccc(COc2ccc(C3CC(=O)Nc4n[nH]cc43)cc2OC)c(C(F)(F)F)c1 (stereo not drawn) [Example 142, 4-(3-methoxy-4-{[4-(prop-2-en-1-yl)-2-(trifluoromethyl)phenyl]methoxy}phenyl)-2H,4H,5H,6H,7H-pyrazolo[3,4-b]pyridin-6-one] |  | 
